# Data reported in patent US8158621B2, “Methods of treating or preventing autoimmune diseases with 2,4-pyrimidinediamine compounds” (Rigel Pharmaceuticals, Inc., priority 2002, dated 2012).
# System: cultured human mast cells (CHMC)
# Assay: CHMC low cell density ionomycin activation: tryptase assay
# Format: cell-based
# Conditions: low cell density; read-out: CHMC Ionomycin Tryptase
row,SMILES,IC50 [nM]
1,CNC(=O)COc1cccc(Nc2ncc(F)c(Nc3ccc4c(c3)NC(=O)C(C)(C(=O)NC)O4)n2)c1 (racemic) [Compound R940365],> 10000
2,Cc1cc(C)cc(Nc2ncc(F)c(Nc3ccc4c(c3)NC(C)(C)CO4)n2)c1 [Compound R908586],> 10000
3,COc1ccc(Nc2ncc(F)c(Nc3ccc4c(c3)NC(C)(C)CO4)n2)cc1Cl [Compound R908587],> 10000
4,COc1cc(Nc2ncc(F)c(Nc3ccc4c(c3)NC(=O)[C@@H](C)O4)n2)cc(OC)c1 [Compound R908954],> 10000
5,Cc1cc(C)cc(Nc2ncc(F)c(Nc3ccc4c(c3)NC(=O)C(C)(C)O4)n2)c1 [Compound R927075],15200
6,CC1(C)Oc2ccc(Nc3nc(Nc4ccc5cn[nH]c5c4)ncc3F)cc2NC1=O [Compound R935430],9300
7,COc1ccc(Nc2nc(Nc3ccc4c(cnn4C)c3)ncc2F)cc1Cl [Compound R935458],> 10000
8,O=C1COc2ccc(Nc3nc(Nc4cccc(Br)c4)ncc3F)nc2N1 [Compound R945455],> 10000
9,CNC(=O)COc1cccc(Nc2ncc(F)c(Nc3ccc4c(c3)[C@H](N)CCO4)n2)c1 [Compound R950421],> 10000
10,CC1(C)C(=O)NC(=O)c2cc(Nc3nc(Nc4ccc(C(N)=O)cc4)ncc3F)ccc21 [Compound R950453],> 10000

# System: Human Jurkat T-cells (clone N)
# Assay: Jurkat T-cell activation (anti-TCR, CD69 upregulation)
# Format: cell-based
# Conditions: not given
# In short: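 Readout is CD69 upregulation by flow cytometry (anti-CD69-APC, 20 min at 4 °C) after 20 h anti-TCR (C305, 500 ng/ml) stimulation at 37 °C.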
row,SMILES,IC50 [nM]
1,CN1C=COc2ccc(Nc3nc(Nc4cccc(O)c4)ncc3F)cc21 [Compound R908710],4280

# Same assay, conditions: Homo sapiens, Jurkat
row,SMILES,IC50 [nM]
1,O=C1COc2ccc(Nc3ncc(F)c(Nc4cccc(O)c4)n3)cc2N1 [Compound R909238],5020
2,Oc1cccc(Nc2ncc(F)c(Nc3ccc4c(c3)OCCO4)n2)c1 [Compound R925796],1830
3,CCOC(=O)C=C1NN=C(c2cccc(Nc3nc(Cl)ncc3F)c2)O1 [Compound R926873],> 10000
4,Fc1cnc(Cl)nc1Nc1ccc(OC(F)(F)F)cc1 [Compound R926875],> 10000
5,Fc1cnc(Cl)nc1Nc1ccc(C(F)(F)F)cc1 [Compound R926876],> 10000
6,Fc1cnc(Cl)nc1Nc1ccc(Cl)c(C(F)(F)F)c1 [Compound R926877],> 10000
7,COc1ccc(Nc2nc(Cl)ncc2F)cn1 [Compound R926878],> 10000
8,Fc1ccc(Nc2nc(Cl)ncc2F)cc1F [Compound R926882],9050
9,Fc1cnc(Cl)nc1Nc1ccc(Cl)c(Cl)c1 [Compound R926884],> 10000
10,Cc1cccc(Nc2nc(Cl)ncc2F)n1 [Compound R926888],5580
11,COC1=CC=C(Nc2nc(Cl)ncc2F)CC1=CN(C(=O)OC(C)(C)C)C(C)C [Compound R940320],7820

# System: cultured human mast cells (CHMC)
# Assay: CHMC low cell density IgE activation: tryptase assay
# Format: cell-based
# Conditions: Homo sapiens, Mast cell, Low Density CHMC, anti-IgE activation, tryptase release; read-out: CHMC anti-IgE Tryptase IC50
# Method: Pellet CHMC cells (980 rpm, 10 min) and resuspend in pre-warmed MT. Add 65 ul of cells to each 96-well plate. Depending on the degranulation activity for each particular CHMC donor, load 1000-1500 cells/well. Mix four times followed by a 1 hr incubation at 37° C. […] Stimulate cells by adding 25 ul of 6× anti-IgE solution to the appropriate plates. Add 25 ul MT to un-stimulated control wells. Mix twice following addition of the anti-IgE. Incubate at 37° C. for 30 minutes. […] Spin plates at 1000 rpm for 10 min to pellet cells. Transfer 25 ul of supernatant to a 96-well black bottom plate and add 100 ul of freshly diluted tryptase substrate solution to each well. Incubate plates at room temperature for 30 min.
row,SMILES,IC50 [nM]
1,O=C1COc2ccc(Nc3ncc(F)c(Nc4cccc(O)c4)n3)cc2N1 [Compound R909238],174
2,Oc1cccc(Nc2ncc(F)c(Nc3ccc4c(c3)OCCO4)n2)c1 [Compound R925796],2000

# Same assay, conditions: Homo sapiens, Mast cell, Low Density; read-out: CHMC anti-IgE Tryptase
row,SMILES,IC50 [nM]
1,CCOC(=O)C=C1NN=C(c2cccc(Nc3nc(Cl)ncc3F)c2)O1 [Compound R926873],> 10000
2,Fc1cnc(Cl)nc1Nc1ccc(OC(F)(F)F)cc1 [Compound R926875],> 10000
3,Fc1cnc(Cl)nc1Nc1ccc(C(F)(F)F)cc1 [Compound R926876],> 10000
4,Fc1cnc(Cl)nc1Nc1ccc(Cl)c(C(F)(F)F)c1 [Compound R926877],> 10000
5,COc1ccc(Nc2nc(Cl)ncc2F)cn1 [Compound R926878],> 10000
6,Fc1ccc(Nc2nc(Cl)ncc2F)cc1F [Compound R926882],> 10000
7,Fc1cnc(Cl)nc1Nc1ccc(Cl)c(Cl)c1 [Compound R926884],> 10000
8,Cc1cccc(Nc2nc(Cl)ncc2F)n1 [Compound R926888],> 10000
9,CN(C=C1C=CC=C(Nc2nc(Cl)ncc2F)C1)C(=O)OC(C)(C)C [Compound R940315],> 10000
10,COC1=CC=C(Nc2nc(Cl)ncc2F)CC1=CN(C(=O)OC(C)(C)C)C(C)C [Compound R940320],> 10000

# Same assay, conditions: Low Density; read-out: CHMC anti-IgE Tryptase
row,SMILES,IC50 [nM]
1,CN1C=COc2ccc(Nc3nc(Nc4cccc(O)c4)ncc3F)cc21 [Compound R908710],1840

# Same assay, conditions: low cell density; read-out: CHMC anti-IgE Tryptase
row,SMILES,IC50 [nM]
1,CNC(=O)CCn1ncc2ccc(Nc3ncc(F)c(Nc4ccc5c(c4)NC(=O)C(C)(C)O5)n3)cc21 [Compound R935435],337
2,COc1ccc(Nc2nc(Nc3ccc4[nH]ncc4c3)ncc2F)cc1OC [Compound R935441],586
3,COC(=O)c1ccc(Cn2ncc3ccc(Nc4ncc(F)c(Nc5ccc6c(c5)NC(=O)C(C)(C)O6)n4)cc32)c(OC)c1 [Compound R935442],701
4,COc1c(C)cc(Nc2ncc(F)c(Nc3ccc4c(n3)NC(=O)C(C)(C)O4)n2)cc1Cl [Compound R940391],261
5,COC(=O)COc1cccc(Nc2ncc(F)c(Nc3ccc4c(n3)NC(=O)C(C)(C)O4)n2)c1 [Compound R940392],145
6,Cc1cc(Nc2ncc(F)c(Nc3ccc4c(c3)OCCO4)n2)cc(Cl)c1O [Compound R940393],5260
7,Cc1cc(Nc2ncc(F)c(Nc3ccc4c(n3)NC(=O)C(C)(C)O4)n2)cc(Cl)c1O [Compound R940394],16500
8,COc1c(C)cc(Nc2ncc(F)c(Nc3ccc4c(n3)NC(=O)C(C)(C)O4)n2)cc1C [Compound R940395],> 10000
9,COc1c(C)cc(Nc2ncc(F)c(Nc3ccc4c(c3)OCCO4)n2)cc1C [Compound R940396],22700
10,COc1c(C)cc(Nc2ncc(F)c(Nc3ccc4c(c3)OCCO4)n2)cc1Cl [Compound R940397],3700
11,COC(=O)N1CCN(c2ccc(Nc3nc(NC4CC4)ncc3F)cc2)CC1 [Compound R945373],> 10000
12,COC(=O)N1CCN(c2ccc(Nc3nc(NC4CCC4)ncc3F)cc2)CC1 [Compound R945374],> 10000
13,CC(=O)N(C)c1ccc(Nc2nc(NC3CC3)ncc2F)cc1 [Compound R945375],> 10000
14,Fc1cnc(NC2CC2)nc1NC1CC1 [Compound R945376],> 10000
15,CNC(=O)COc1cccc(Nc2ncc(F)c(Nc3ccc(N(C)C(C)=O)cc3)n2)c1 [Compound R945377],1120
16,CNC(=O)COc1cccc(Nc2ncc(F)c(Nc3cccc(OCC(=O)NC)c3)n2)c1 [Compound R945378],754
17,CC(=O)N(C)c1ccc(Nc2nc(NC3CCC3)ncc2F)cc1 [Compound R945379],> 10000
18,Fc1cnc(NC2CCC2)nc1NC1CCC1 [Compound R945380],> 10000
19,CC(=O)N1CCN(c2ccc(Nc3nc(NC4CC4)ncc3F)cc2)CC1 [Compound R945381],> 10000
20,CC(=O)N1CCN(c2ccc(Nc3nc(NC4CCC4)ncc3F)cc2)CC1 [Compound R945382],> 10000
21,CC(=O)N(C)c1ccc(Nc2ncc(F)c(NC3CCC3)n2)cc1 [Compound R945383],985
22,COC(=O)N1CCN(c2ccc(Nc3ncc(F)c(NC4CCC4)n3)cc2)CC1 [Compound R945386],1390
23,CNC(=O)COc1cccc(Nc2ncc(F)c(NC3CCC3)n2)c1 [Compound R945387],1120
24,O=C(COc1cccc(Nc2ncc(F)c(NC3CCC3)n2)c1)NC1CCC1 [Compound R945396],2240

row,SMILES,IC50 [nM]
1,COc1c(Cl)cc(Nc2ncc(F)c(NC3CCC3)n2)cc1Cl [Compound R945397],928
2,CCCCOc1ccc(Nc2ncc(F)c(Nc3ccc4c(n3)NC(=O)CO4)n2)cc1 [Compound R945408],> 10000
3,O=C1COc2ccc(Nc3nc(Nc4ccc(Oc5ccccc5)cc4)ncc3F)nc2N1 [Compound R945409],> 10000
4,O=C1COc2ccc(Nc3nc(Nc4ccc(OCc5ccccc5)cc4)ncc3F)nc2N1 [Compound R945410],> 10000
5,CNC(=O)COc1cccc(Nc2ncc(F)c(Nc3ccc4c(c3)NC(=O)C(F)(F)O4)n2)c1 [Compound R945415],46
6,CC(=O)N(C)c1ccc(Nc2ncc(F)c(Nc3ccc4c(n3)NC(=O)CO4)n2)cc1 [Compound R945420],436
7,CCN(C(C)=O)c1ccc(Nc2ncc(F)c(Nc3ccc4c(n3)NC(=O)CO4)n2)cc1 [Compound R945421],371
8,COc1cc(Nc2nc(N[C@@H]3CCCC[C@H]3N)ncc2F)cc(OC)c1 [Compound R950439],> 10000
9,C[C@@H]1Oc2ccc(Nc3nc(N[C@@H]4CCCC[C@H]4N)ncc3F)cc2NC1=O [Compound R950441],> 10000
10,CCN(CC)CCNC(=O)c1ccc(Nc2ncc(F)c(Nc3ccc(Cl)c(Cl)c3)n2)cc1 [Compound R950445],379
11,CCN(CC)CCNC(=O)c1ccc(Nc2ncc(F)c(Nc3ccc4c(c3)NC(=O)[C@H](C)O4)n2)cc1 [Compound R950446],148
12,CCN(CC)CCNC(=O)c1ccc(Nc2ncc(F)c(Nc3ccc4c(c3)NC(=O)C(F)(F)O4)n2)cc1 [Compound R950449],668
13,COc1cc(Nc2nc(Nc3ccc(C(N)=O)cc3)ncc2F)cc(OC)c1 [Compound R950450],1090
14,NC(=O)c1ccc(Nc2ncc(F)c(Nc3ccc(Cl)c(Cl)c3)n2)cc1 [Compound R950451],70
15,C[C@@H]1Oc2ccc(Nc3nc(Nc4ccc(C(N)=O)cc4)ncc3F)cc2NC1=O [Compound R950452],101
16,NC(=O)c1ccc(Nc2ncc(F)c(Nc3ccc4c(c3)NC(=O)C(F)(F)O4)n2)cc1 [Compound R950455],217
17,NCc1ccc(Nc2ncc(F)c(Nc3ccc(Cl)c(Cl)c3)n2)cc1 [Compound R950459],632
18,C[C@@H]1Oc2ccc(Nc3nc(Nc4ccc(CNC(=O)OC(C)(C)C)cc4)ncc3F)cc2NC1=O [Compound R950460],177
19,C[C@@H]1Oc2ccc(Nc3nc(Nc4ccc(CN)cc4)ncc3F)cc2NC1=O [Compound R950461],142
20,CC(C)(C)OC(=O)NCc1ccc(Nc2ncc(F)c(Nc3ccc4c(c3)C(=O)NC(=O)C4(C)C)n2)cc1 [Compound R950462],> 10000
21,CC1(C)C(=O)NC(=O)c2cc(Nc3nc(Nc4ccc(CN)cc4)ncc3F)ccc21 [Compound R950463],2460
22,CC(C)(C)OC(=O)NCc1ccc(Nc2ncc(F)c(Nc3ccc4c(c3)NC(=O)C(F)(F)O4)n2)cc1 [Compound R950464],244
23,NCc1ccc(Nc2ncc(F)c(Nc3ccc4c(c3)NC(=O)C(F)(F)O4)n2)cc1 [Compound R950465],351
